From US7381265B2, “Method for crystallization of a weakly acidic and/or weakly basic compound” (Hoffmann-La Roche Inc., priority 2005, dated 2008) come the findings set out here.

A short description of this data set: potentiometric solubility-pH profile titration (pSol). It is filed as physicochemical. The conditions noted are these: FIG. 8. From the text:
The above described titration e.g. of a weak base B from high to low pH-values is used for potentiometric determination of solubility profiles according to the so-called “pSol method” (see e.g. Avdeef, A., 1998, loc. cit.). However, in pSol titrations the phenomenon of a “perfect” buffer system is not encountered frequently because in order to obtain good titration results it is advisable to use only small amounts of the compound under investigation. This leads to a situation where the whole amount of the compound is dissolved before the maximal effective concentration corresponding to point 2 in FIG. 1 is reached. This is illustrated in FIG. 3, where reduction of the pH-value leads along the solubility profile until reaching the point denoted as 2′ in FIG. 3. […] Therefore, the total concentration of the compound remains constant at a value CT.
Measurements of solubility-pH profiles were carried out on a “pSol” apparatus (see e.g. Avdeef, A., 2001, loc. cit.). The potentiometric solubility measurement with the pSol apparatus takes as input parameters the weighted amount of the said compound, the volume of the solution, the measured pKa and the measured (or calculated) octanol/water partition coefficient, logP. […]

Consider `COc1ccc2c3c1O[C@H]1[C@@H](O)C=C[C@H]4[C@@H](C2)N(C)CC[C@@]341` [codeine], for which the “pH at which the precipitation begins” value is, setting by setting: (total concentration about 58 mg/mL for the titration) “about 7”; (total concentration of about 13 mg/mL for the titration) “about 8”.
